# Laboratory results taken from patent publication US7282608B2, “Inhibitors of histone deacetylase” (Methylgene, Inc., priority 2002, dated 2007).
# Where two headings read alike, the source gives them in different places.
# Key:
# [1] = biological target: T1, cloned recombinant human HDAC-1 (Homo sapiens, UniProt Q13547); assay: Human HDAC-1 Assay 1: [3H]-acetylated histone deacetylase assay; format: biochemical; details: Assay 1, unbracketed data; [3H]-acetylated histone substrate, 10 min at 37° C.
# T1 construct: made in house; host or cells: Baculovirus insect cell expression system
# Method: HDAC inhibitors were screened against a cloned recombinant human HDAC-1 enzyme expressed and purified from a Baculovirus insect cell expression system. For deacetylase assays, 20,000 cpm of the [^3H]-metabolically labeled acetylated histone substrate (M. Yoshida et al., J. Biol. Chem. 265(28): 17174–17179 (1990)) was incubated with 30 μg of the cloned recombinant hHDAC-1 for 10 minutes at 37° C. The reaction was stopped by adding acetic acid (0.04 M, final concentration) and HCl (250 mM, final concentration). […] For inhibition studies, the enzyme was preincubated with compounds at 4° C. for 30 minutes prior to initiation of the enzymatic assay. IC50 values for HDAC enzyme inhibitors were determined by performing dose response curves with individual compounds and determining the concentration of inhibitor producing fifty percent of the maximal inhibition. IC50 values for representative compounds assayed using this procedure are presented in the third column of Tables 7–10 (excepting bracketed data).
# [2] = system: HCT116 cells; assay: MTT assay; format: cell-based; details: Homo sapiens, HCT-116, 72 hours
# Method: HCT116 cells (2000/well) were plated into 96-well tissue culture plates one day before compound treatment. Compounds at various concentrations were added to the cells. The cells were incubated for 72 hours at 37° C. in 5% CO2 incubator. MTT (3-[4,5-dimethylthiazol-2-yl]-2,5 diphenyl tetrazolium bromide, Sigma) was added at a final concentration of 0.5 mg/ml and incubated with the cells for 4 hours before one volume of solubilization buffer (50% N,N-dimethylformamide, 20% SDS, pH 4.7) was added onto the cultured cells. After overnight incubation, solubilized dye was quantified by colorimetric reading at […] using a reference at […] using an MR700 plate reader (Dynatech Laboratories Inc.). OD values were converted to cell numbers according to a standard growth curve of the relevant cell line. The concentration which reduces cell numbers to 50% of that of solvent treated cells is determined as MTT IC50. IC50 values for representative compounds are presented in the fourth column of Tables 7–10.
# [3] = system: acetylated histone H-4 in T24 human bladder cancer cells; assay: Histone H4 acetylation in whole cells by immunoblots; format: cell-based; details: 16 h, read-out: H4 Ac (T24) EC50
# Method: T24 human bladder cancer cells growing in culture were incubated with HDAC inhibitors for 16 h. Histones were extracted from the cells after the culture period as described by M. Yoshida et al. (J. Biol. Chem. 265(28): 17174–17179 (1990)). […] of total histone protein was loaded onto SDS/PAGE and transferred to nitrocellulose membranes. Membranes were probed with polyclonal antibodies specific for acetylated histone H-4 (Upstate Biotech Inc.), followed by horse radish peroxidase conjugated secondary antibodies (Sigma). Enhanced Chemiluminescence (ECL) (Amersham) detection was performed using Kodak films (Eastman Kodak). Acetylated H-4 signal was quantified by densitometry. Representative data are presented in the fifth column of Table 7–10. Data are presented as the concentration effective for […] the acetylated H-4 signal by 50% (EC50).
# T1 sequence (Q13547 whole entry): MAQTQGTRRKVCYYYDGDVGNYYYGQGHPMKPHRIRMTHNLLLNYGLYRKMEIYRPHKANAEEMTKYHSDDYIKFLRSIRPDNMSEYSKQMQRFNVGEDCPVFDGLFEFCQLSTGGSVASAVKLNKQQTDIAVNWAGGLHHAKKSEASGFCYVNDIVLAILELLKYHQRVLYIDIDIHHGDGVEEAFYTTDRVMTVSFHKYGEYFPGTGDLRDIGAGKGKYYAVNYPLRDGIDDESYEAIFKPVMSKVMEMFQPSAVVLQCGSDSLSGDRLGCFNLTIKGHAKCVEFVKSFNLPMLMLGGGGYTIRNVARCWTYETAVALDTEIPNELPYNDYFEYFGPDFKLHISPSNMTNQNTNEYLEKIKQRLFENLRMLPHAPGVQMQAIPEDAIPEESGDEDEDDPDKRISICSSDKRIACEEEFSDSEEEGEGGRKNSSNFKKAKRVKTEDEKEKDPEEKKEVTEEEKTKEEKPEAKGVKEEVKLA
Structure (SMILES),IC50 [1],IC50 [2],EC50 ([3]; immunoblot densitometry),EC50 ([3]; code 9999 of the footnote)
"COc1cc(NC(=O)/C=C/c2ccc(C(=O)Nc3ccccc3N)cc2)cc(OC)c1OC [Va, N-(2-Amino-phenyl)-4-[2-(3,4,5-trimethoxy-phenylcarbamoyl)-vinyl]-benzamide]",5 µM,3 µM,,
"Nc1ccccc1NC(=O)c1ccc(/C=C/C(=O)N2CCCC2c2cccnc2)cc1 (racemic) [Vl, (rac)-N-(2-Amino-phenyl)-4-[3-oxo-3-(2-pyridin-3-yl-pyrrolidin-1-yl)-propenyl]-benzamide]",12 µM,4 µM,,
"N#CCCN(Cc1cccnc1)C(=O)/C=C/c1ccc(C(=O)Nc2ccccc2N)cc1 [Vn, N-(2-Amino-phenyl)-4-{2-[(2-cyano-ethyl)-pyridin-3-ylmethyl-carbamoyl]-vinyl}-benzamide]",7 µM,3 µM,,
"Cc1ccc(S(=O)(=O)NC/C=C/c2ccc(C(=O)Nc3ccccc3N)cc2)cc1 [XVg, N-(2-Amino-phenyl)-4-[3-(4-tolyl-sulfonylamino)-propenyl]-benzamide]",12 µM,5 µM,,
"Nc1ccccc1NC(=O)c1ccc(/C=C/C(=O)N2CCOCC2)cc1 [Ve, N-(2-Amino-phenyl)-4-(3-morpholin-4-yl-3-oxo-propenyl)-benzamide]",20 µM,6 µM,,
"Nc1ccccc1NC(=O)c1ccc(/C=C/C(=O)N(Cc2cccnc2)Cc2cccnc2)cc1 [Vo, N-(2-Amino-phenyl)-4-[2-(bis-pyridin-3-ylmethyl-carbamoyl)-vinyl]-benzamide]",15 µM,4 µM,,
"Nc1ccccc1NC(=O)c1ccc(/C=C/C(=O)OCc2cccnc2)cc1 [Vg, Pyridin-3-ylmethyl 3-[4-(2-amino-phenylcarbamoyl)-phenyl]-acrylic ester]",10 µM,5 µM,,
"Nc1ccccc1NC(=O)c1ccc(/C=C/C(=O)N2CCN(c3ccccn3)CC2)cc1 [Vm, N-(2-Amino-phenyl)-4-[3-oxo-3-(4-pyridin-2-yl-piperazin-1-yl)-propenyl]-benzamide]",11 µM,6 µM,,
"Nc1ccccc1NC(=O)c1ccc(C(=O)/C=C/c2ccc(Cl)cc2)cc1 [Ie, N-(2-Amino-phenyl)-4-[3-(4-chloro-phenyl)-acryloyl]-benzamide]",6 µM,9 µM,,
"COc1cccc(C(=O)/C=C/c2ccc(C(=O)Nc3ccccc3N)cc2)c1 [XXIVd, N-(2-Amino-phenyl)-4-[3-(3-methoxy-phenyl)-3-oxo-propenyl]-benzamide]",4 µM,0.3 µM,< 5 µM,
"COc1cc(NC/C=C/c2ccc(C(=O)Nc3ccccc3N)cc2)cc(OC)c1OC [XVb, N-(2-Amino-phenyl)-4[3-(3,4,5-trimethoxy-phenylamino)-propenyl]-benzamide]",4 µM,0.1 µM,3 µM,
"Nc1ccccc1NC(=O)c1ccc(/C=C/C(=O)c2ccc(N3CCOCC3)cc2)cc1 [XXIVf, N-(2-Amino-phenyl)-4-[3-(4-morpholin-4-yl-phenyl)-3-oxo-propenyl]-benzamide]",10 µM,0.3 µM,3 µM,
"Nc1ccccc1NC(=O)c1ccc(/C=C/C(=O)NCCc2cccnc2)cc1 [Vf, N-(2-Amino-phenyl)-4-[2-(2-pyridin-3-yl-ethylcarbamoyl)-vinyl]-benzamide]",5 µM,0.3 µM,1 µM,
"Nc1ccccc1NC(=O)c1ccc(C(=O)/C=C/c2ccc(Cl)c(Cl)c2)cc1 [Ia, N-(2-Amino-phenyl)-4-[3-(3,4-dichloro-phenyl)-acryloyl]-benzamide]",5 µM,1 µM,,
"COc1cc(OC)c(/C=C/C(=O)c2ccc(C(=O)Nc3ccccc3N)cc2)c(OC)c1 [If, N-(2-Amino-phenyl)-4-[3-(2,4,6-trimethoxy-phenyl)-acryloyl]-benzamide]",4 µM,5 µM,,
"Nc1ccccc1NC(=O)c1ccc(/C=C/C(=O)N[C@H]2c3ccccc3C[C@H]2O)cc1 [Vp, (−)-(1S,2R)-N-(2-Amino-phenyl)-4-[2-(2-hydroxy-indan-1-ylcarbamoyl)-vinyl]-benzamide]",13 µM,2 µM,,
"COc1ccc(C2CCN(C(=O)/C=C/c3ccc(C(=O)Nc4ccccc4N)cc3)CC2)cc1OC [Vk, N-(2-Amino-phenyl)-4-{3-[4-(3,4-dimethoxy-phenyl)-piperidin-1-yl]-3-oxo-propenyl}-benzamide]",13 µM,2 µM,,

# Results, then the compound that gave them:
IC50 [1],IC50 [2],EC50 ([3]; immunoblot densitometry),EC50 ([3]; code 9999 of the footnote),Structure (SMILES)
0.8 µM,1 µM,< 1 µM,,"Nc1ccccc1NC(=O)c1ccc(/C=C/CNc2nc3ccccc3s2)cc1 [XVc, N-(2-Amino-phenyl)-4-[3-(benzothiazol-2-ylamino)-propenyl]-benzamide]"
3 µM,1 µM,3 µM,,"Nc1ccccc1NC(=O)c1ccc(C(=O)/C=C/c2cc(F)ccc2F)cc1 [Ii, N-(2-Amino-phenyl)-4-[3-(2,5-difluoro-phenyl)-acryloyl]-benzamide]"
4 µM,1 µM,2 µM,,"Nc1ccccc1NC(=O)c1ccc(/C=C/CN2CCN(Cc3ccccc3)CC2)cc1 [XXXb, N-(2-Amino-phenyl)-4-[3-(4-benzyl-piperazin-1-yl)-propenyl]-benzamide]"
1 µM,1 µM,4 µM,,"COc1ccc(NC/C=C/c2ccc(C(=O)Nc3ccccc3N)cc2)cc1OC [XVi, N-(2-Amino-phenyl)-4-[3-(3,4-dimethoxy-phenylamino)-propenyl]-benzamide]"
3 µM,0.8 µM,5 µM,,"COc1ccccc1C(=O)/C=C/c1ccc(C(=O)Nc2ccccc2N)cc1 [XXIVe, N-(2-Amino-phenyl)-4-[3-(2-methoxy-phenyl)-3-oxo-propenyl]-benzamide]"
3 µM,1 µM,10 µM,,"Nc1ccccc1NC(=O)c1ccc(/C=C/C(=O)NC2Cc3ccccc3C2)cc1 [Vh, N-(2-Amino-phenyl)-4-[2-(indan-2-ylcarbamoyl)-vinyl]-benzamide]"
4 µM,0.3 µM,3 µM,,"COc1cc(C)nc(NC/C=C/c2ccc(C(=O)Nc3ccccc3N)cc2)n1 [XVd, N-(2-Amino-phenyl)-4-[3-(4-methoxy-6-methyl-pyrimidin-2-ylamino)-propenyl]-benzamide]"
2 µM,0.6 µM,2 µM,,"Nc1ccccc1NC(=O)c1ccc(CCC(=O)c2ccccc2)cc1 [XXVIIa, N-(2-Amino-phenyl)-4-(3-oxo-3-phenyl-propyl)-benzamide]"
3 µM,0.4 µM,,> 25 µM,"Nc1ccccc1NC(=O)c1ccc(C(=O)/C=C/c2c(Cl)cccc2Cl)cc1 [Ic, N-(2-Amino-phenyl)-4-[3-(2,6-dichloro-phenyl)-acryloyl]benzamide]"
1 µM,0.4 µM,1 µM,,"Nc1ccccc1NC(=O)c1ccc(/C=C/C(=O)NCCOc2ccccc2)cc1 [Vd, N-(2-Amino-phenyl)-4-[2-(2-phenoxy-ethylcarbamoyl)-vinyl]-benzamide]"
1 µM,0.3 µM,1 µM,,"Nc1ccccc1NC(=O)c1ccc(/C=C/C(=O)NCCc2c[nH]c3ccccc23)cc1 [Vj, N-(2-Amino-phenyl)-4-{2-[2-(1H-indol-3-yl)-ethylcarbamoyl]-vinyl}-benzamide]"
2 µM,1 µM,1 µM,,"COc1ccc(NC/C=C/c2ccc(C(=O)Nc3ccccc3N)cc2)cc1OC1CCCC1 [XVa, N-(2-Amino-phenyl)-4-[3-(3-cyclopentyloxy-4-methoxy-phenylamino)-propenyl]-benzamide]"
3 µM,3 µM,,,"CC(C)(C)OC(=O)N(C/C=C/c1ccc(C(=O)Nc2ccccc2N)cc1)Cc1cccnc1 [XXIIh, t-Butyl {3-[4-(2-amino-phenylcarbamoyl)-phenyl]-ally}-pyridin-3-ylmethyl-carbamate]"
3 µM,1 µM,2 µM,,CC(=O)c1cc2c(cc1NC/C=C/c1ccc(C(=O)Nc3ccccc3N)cc1)OCO2 [XVf]
2 µM,0.6 µM,,,"Nc1ccccc1NC(=O)c1ccc(CCCc2ccccc2)cc1 [XXIXa, N-(2-Amino-phenyl)-4-(3-phenyl-propyl)-benzamide]"
